Drawing on PubChem BioAssay (NCI), this text covers TGI for 20 molecules.

Test in all cases: DTP human tumour cell line panel, 48 h
Assay [1] relates to SN12C renal.
Assay [2] relates to T-47D breast.
In assay [3] the test system is SF-268 CNS.
The subject of assay [4] is OVCAR-4 ovarian.
For assay [5], the system named is SF-295 CNS.
The test system of assay [6] is SNB-19 CNS.
Assay [7] deals with RXF 393 renal.
Assay [8] deals with MCF7 breast.
Assay [9] deals with TK-10 renal.
The test system of assay [10] is SK-MEL-28 melanoma.
Assay [11] concerns SR leukemia.
Assay [12] deals with NCI-H522 lung.
The test system of assay [13] is HCT-116 colon.
Assay [14] deals with SF-539 CNS.
For assay [15], the system named is SK-MEL-2 melanoma.
The test system of assay [16] is SK-MEL-5 melanoma.
Assay [17] relates to MDA-N.

The TGI is the concentration giving total growth inhibition. A lower TGI goes with greater sensitivity of the cells.

Molecules are shown by their SMILES.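 In this assay, cells in 96-well plates receive the compound at five concentrations for 48 hours. Endpoints are linearly interpolated between the surrounding concentrations. TGI denotes the concentration required for complete inhibition of growth.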

In the case of `COc1ccc(N2C(=O)C3ON(C(C(N)=O)c4ccccc4)C(c4ccc(-c5ccccc5)cc4)C3C2=O)cc1` (stereo unspecified), the TGI in [1], in assay [2], in [3], in [4], in assay [5] and in [6] was > 50 µM each time. The TGI in assay [7], in assay [8], in assay [9], in [10], in assay [11] and in assay [12] was > 50 µM in each case. Moreover, the TGI in assay [13], in assay [14] and in [15] was > 50 µM each time.
For the molecule `CCCn1c(SCC)c2ccccc2c1-c1nc(F)nc(F)n1`, the total growth inhibition concentration (TGI) in [1], in assay [3], in assay [4], in [5], in assay [6] and in [7] was > 100 µM each time. The concentration for total growth inhibition (TGI) in assay [9], in assay [10], in [11], in [12], in [13] and in [14] was > 100 µM each time. Moreover, the total growth inhibition concentration (TGI) in [15] is > 100 µM.
With `CCCC/C=C/C1Cc2ccccc2CN1S(=O)(=O)c1ccc(C)cc1` (stereo unspecified), the TGI in assay [1] was 23 µM; in assay [3] it was 30 µM; in assay [4], 24.7 µM; in [5] it was 35.6 µM; in [6], > 100 µM; in [16] it was 14.9 µM. Moreover, the TGI in assay [7] worked out at 23.9 µM; in [9] it was 61.3 µM; in assay [10] it was 22.7 µM; in assay [11], 41.8 µM; in [12], 20.2 µM; in [13] it was 3.35 µM. Besides, the TGI is 33 µM in assay [14] and > 100 µM in assay [15].
Turning to `O=C1C(/C=C/c2ccc(Cl)cc2)=NNC2N1N=C1NC(=O)C3(NN12)c1ccccc1-c1ccccc13` (stereo unspecified), the total growth inhibition concentration (TGI) in [1], in assay [3], in [4], in [5], in assay [6] and in [16] was > 100 µM throughout. For the same molecule, the total growth inhibition concentration (TGI) in assay [7] is > 100 µM; in assay [8] it was > 100 µM; in assay [9], > 100 µM; in [10], > 100 µM; in assay [11], 60.3 µM; in assay [12] it was > 100 µM. Also, the concentration for total growth inhibition (TGI) in [13], in [14] and in assay [15] was > 100 µM throughout.
Take `CC(C)(C)NN=C1C(C)(C)C(=NNC(C)(C)C)C1(C)C`: the concentration for total growth inhibition (TGI) in assay [1], in assay [3], in assay [4], in assay [5], in assay [6] and in assay [16] was > 100 µM throughout. In addition, the concentration for total growth inhibition (TGI) in assay [7], in assay [9], in [10], in assay [11], in [12] and in assay [13] was > 100 µM in each case. Also, the concentration for total growth inhibition (TGI) in assay [14] was > 100 µM.
On to `COC(=O)C(CCCC1(c2ccccc2)OCCO1)C(C)=O` (stereo unspecified), for which the TGI in assay [1], in assay [3], in [4], in [5], in assay [6] and in assay [16] was > 100 µM in each case. Also, the concentration for total growth inhibition (TGI) in [7], in [9], in [10], in assay [11], in assay [12] and in [13] was > 100 µM each time. For the same molecule, the TGI in [14] and in [15] was > 100 µM each time.
For `CCCCc1c2c(nc3c1CCCC3O)/C(=C/c1ccccc1)CCC2` (stereo unspecified), the total growth inhibition concentration (TGI) in assay [1] was 62.5 µM; in assay [3], 85.3 µM; in assay [4] it was > 100 µM; in [5], > 100 µM; in assay [6], > 100 µM; in [16], 39.6 µM. The TGI in assay [7] is 71.7 µM; in assay [9] it was 74.7 µM; in [10] it was 94.3 µM; in assay [11] it was 42 µM; in assay [12], 52.5 µM; in assay [13], > 100 µM. Also, the TGI was found to be 66.9 µM in assay [14] and 51.7 µM in [15].
Regarding `CC(OC(=O)NCn1cc(-c2ccccc2)nn1)c1ccccc1` (stereo unspecified), the TGI was > 100 µM in assay [1]; > 100 µM in assay [5]; > 100 µM in assay [6]; 32.4 µM in assay [16]; > 100 µM in assay [8]; > 100 µM in assay [9]. Besides, the TGI in assay [10], in [11], in [12], in assay [13], in assay [14] and in assay [15] was > 100 µM throughout.
Turning to `CC(=O)O/N=C/c1ncccc1OC(C)=O`, the TGI in [1], in assay [3], in assay [4], in assay [5], in [6] and in [16] was > 100 µM throughout. In addition, the TGI in assay [7], in assay [9], in assay [10], in assay [11], in [12] and in [13] was > 100 µM each time. Also, the concentration for total growth inhibition (TGI) in assay [14] and in assay [15] was > 100 µM each time.
`CCCN(CCCC(NC(C)=O)C(=O)NCc1ccccc1)C(=O)NC` (stereo unspecified): the concentration for total growth inhibition (TGI) in assay [1], in assay [3], in [4], in assay [5], in assay [6] and in [16] was > 100 µM each time. In addition, the concentration for total growth inhibition (TGI) in assay [7], in assay [9], in [10], in assay [12], in [13] and in assay [14] was > 100 µM in each case. Moreover, in assay [15], the TGI is > 100 µM.
Turning to `COc1cc(C2c3cc4c(cc3OC(Nc3ccc(C(=O)O)cc3)C2C)OCO4)cc(OC)c1OC` (stereo unspecified), the TGI was > 100 µM in assay [1]; > 100 µM in [2]; > 39.1 µM in assay [3]; > 52.9 µM in [4]; > 100 µM in assay [5]; > 93.4 µM in assay [6]. Further, the TGI is 0.522 µM in assay [16]; 92 µM in [7]; 40 µM in [8]; > 100 µM in assay [9]; > 100 µM in assay [10]; 6.02 µM in assay [12]. The total growth inhibition concentration (TGI) in assay [13] is 12.2 µM; in assay [14], 0.561 µM; in assay [15], > 59.9 µM.
In the case of `NC(=O)N1N=C2c3ccccc3CC[C@@H]2C1c1ccccc1` (stereo partly specified), the total growth inhibition concentration (TGI) in [1], in [3], in [5], in [6], in assay [16] and in assay [7] was > 100 µM in each case. Moreover, the TGI in [9], in [10], in assay [12], in assay [13], in assay [14] and in assay [15] was > 100 µM throughout.
For `COC(=O)C1=C(C(=O)OC)C2(OC(C)=O)c3ccccc3-c3ccccc3C12` (stereo unspecified), the total growth inhibition concentration (TGI) is 9.28 µM in assay [1]; 22 µM in assay [3]; 6.48 µM in [4]; 33 µM in assay [5]; > 55 µM in assay [6]; 27.3 µM in [16]. The TGI in assay [7] turned out to be 9.17 µM; in assay [9], 8.08 µM; in assay [10] it was 11.9 µM; in assay [11], 16.5 µM; in assay [12], 2.8 µM; in assay [13] it was 7.98 µM. Further, the results for the concentration for total growth inhibition (TGI) in assay [14] and in [15] were 31.6 µM and 29.2 µM, respectively.
In the case of `N#Cc1c(-c2ccco2)cc(-c2ccc(NCc3nc4ccccc4[nH]3)cc2)nc1N`, the TGI is 59.6 µM in assay [1]; > 100 µM in assay [3]; 66.3 µM in assay [4]; 52.3 µM in [5]; > 100 µM in assay [6]; 29.9 µM in [16]. The concentration for total growth inhibition (TGI) in [7] was 68.5 µM; in [9], 86.2 µM; in assay [10], 67.5 µM; in [12], 55.5 µM; in [13], 45.9 µM; in assay [14] it was 47.6 µM. In assay [15], the TGI came to 40.3 µM.
For the molecule `COc1cccc(NC(=S)Nn2c(C)nc3ccccc3c2=O)c1`, the TGI in [1], in assay [3], in assay [4], in [5], in [16] and in assay [7] was > 100 µM each time. Moreover, the total growth inhibition concentration (TGI) in [9], in assay [10], in [11], in assay [12], in assay [13] and in [14] was > 100 µM throughout. Further, the TGI in assay [15] is > 100 µM.
Regarding `COc1ccc(C(O)/C(=N\NC(N)=S)c2nc3ccc([N+](=O)[O-])cc3[nH]c2=O)cc1OC` (stereo unspecified), the concentration for total growth inhibition (TGI) in assay [3], in [4], in assay [5], in assay [7], in assay [9] and in assay [10] was > 100 µM in each case. Besides, the concentration for total growth inhibition (TGI) in [12] and in assay [15] was > 100 µM in each case.
As to `COc1ccc(C2C3C(=O)C=CC(=O)C3[C@@H]2C)cc1OC` (stereo partly specified), the TGI in [3], in assay [4], in assay [5], in assay [6], in [16] and in [7] was > 100 µM throughout. Moreover, the TGI was > 100 µM in assay [9]; > 100 µM in [10]; 33.4 µM in [12]; > 100 µM in [13]; > 100 µM in assay [14]; > 100 µM in assay [15].
Turning to `CSc1nc(-c2cc3c(c(SC)n2)CCCCC3)cc2c1CCCCC2`, the total growth inhibition concentration (TGI) in assay [1], in [3], in assay [4], in assay [5], in assay [6] and in assay [16] was > 100 µM in each case. Moreover, the TGI in assay [7] is > 100 µM; in assay [17], > 100 µM; in assay [9], > 100 µM; in [10], > 100 µM; in assay [12] it was 90.2 µM; in assay [13], > 100 µM. The TGI in assay [14] and in assay [15] was > 100 µM each time.
As to `Clc1ccc(SCCSCCCCCCCCCCSCCSc2ccc(Cl)cc2)cc1`, the concentration for total growth inhibition (TGI) in assay [1], in assay [3], in assay [5], in assay [6], in assay [16] and in assay [7] was > 100 µM throughout. The TGI in [9], in [10], in assay [12], in [14] and in assay [15] was > 100 µM in each case.
In the case of `CSC(C1c2ccccc2N(C)C2=NC(=O)N(C)C(=O)C21Cl)S(=O)(=O)c1ccc(C)cc1` (stereo unspecified), the TGI in [1], in assay [3], in assay [4], in assay [5], in [6] and in assay [16] was > 100 µM in each case. Further, the TGI in assay [9] was > 100 µM; in assay [10], 75.4 µM; in assay [12], 30.8 µM; in [13] it was > 100 µM; in assay [14], > 100 µM; in assay [15], > 100 µM.
